Reference: patent US8466199B2, “Allyloxy and alkyloxy benzoic acid delivery agents” (Emisphere Technologies, Inc., priority 2007, dated 2013)

Columns and labels:
[1] = tested on: fasted male Sprague-Dawley rats; assay: Oral delivery of insulin to male Sprague-Dawley rats (blood glucose by glucometer, compared to vehicle control); format: in vivo, rat; settings: oral gavage, 200 mg/kg delivery agent + 0.5 mg/kg insulin, C minimum over 0-60 min, average of experiments
Description: Insulin stock solution (15 mg/ml) (Human zinc insulin, Calbiochem-Novabiochem Corp., La Jolla, Calif.) was prepared with deionized water. Oral dosing compositions containing 200 mg/kg of a delivery agent compound of the present invention and 0.5 mg/kg of insulin in an aqueous solution were prepared for the compounds prepared in Examples 2-24.
(§1) One ml of the dosing solution was administered to fasted male Sprague-Dawley rats by oral gavage with an average weight of about 225-250 grams Blood glucose levels were then determined by glucometer (One Touch Ultra®, LifeScan, Inc.) and compared to vehicle control (1 ml/kg of water). Samples were collected prior to dosing (time 0) and at 15, 30, 45 and 60 minutes after dosing. The % glucose reduction is shown below in Table 1. The values correspond to the C minimum, and are an average % reduction with respect to the number of times the experiment was run for each delivery agent.
The solutions were administered to fasted male Sprague-Dawley rats and the % glucose reduction was determined in the same manner as described above.
as §1, with “Insulin stock solution (15 mg/ml) (Human zinc insulin, Calbiochem-Novabiochem Corp., La Jolla, Calif.) was prepared with deionized water. Oral dosing compositions containing 200 mg/kg of a delivery agent compound of the present invention and 0.5 mg/kg of insulin in an aqueous solution were prepared for the compounds prepared in Examples 27-34. One ml” for “One ml”, “about 225-250 grams. Blood glucose” for “about 225-250 grams Blood glucose”, “in Table 3. The values” for “in Table 1. The values”
as §1, with “Insulin stock solution (15 mg/ml) (Human zinc insulin, Calbiochem-Novabiochem Corp., La Jolla, Calif.) was prepared with deionized water. Oral dosing compositions containing 200 mg/kg of a delivery agent compound of the present invention and 0.5 mg/kg of insulin in an aqueous solution were prepared for the compounds prepared in Examples 37-49. One ml” for “One ml”, “about 225-250 grams. Blood glucose” for “about 225-250 grams Blood glucose”, “in Table 5. The values” for “in Table 1. The values”

[2] = tested on: fasted male Sprague-Dawley rats; assay: as above; format: in vivo, rat
[3] = Table 2, Insulin Dose 0 mg/kg, Carrier Dose 200 mg/kg
[4] = Table 2, Insulin Dose 0.25 mg/kg, Carrier Dose 200 mg/kg

C=CCOc1ccc(Cl)cc1C(=O)O [Compound 19, 2-Allyloxy-5-chloro-benzoic acid]
Glucose (Absolute change from Control) ([1]; Table 1, aqueous solution): −21.5%

C=CCCOc1ccc(C(=O)O)cc1 [Compound 4, 4-But-3-enyloxy-benzoic acid]
Glucose (Absolute change from Control) ([1]; Table 1, aqueous solution): −41.6% | Glucose (Absolute change from Control) [2, 3]: 8.8% | Glucose (Absolute change from Control) [2, 4]: −11.4%

CC(C)OCc1cccc(C(=O)O)c1 [Compound 43, 3-Isopropoxymethyl-benzoic acid]
Glucose (Absolute change from Control) ([1]; Table 5): −29.3%

C=CCOCc1cccc(C(=O)O)c1 [Compound 38, 3-Allyloxymethyl-benzoic acid]
Glucose (Absolute change from Control) ([1]; Table 5): −13.1%

C=CCCOCc1ccc(C(=O)O)cc1 [Compound 33, 4-But-3-enyloxymethyl-benzoic acid]
Glucose (Absolute change from Control) ([1]; Table 5): −38.5%

CC(C)COc1ccc(C(=O)O)cc1 [Compound 30, 4-Isobutoxy-benzoic acid]
Glucose (Absolute change from Control) ([1]; Table 3): −29.8%

C=CCOCc1ccc(C(=O)O)cc1 [Compound 32, 4-Allyloxymethyl-benzoic acid]
Glucose (Absolute change from Control) ([1]; Table 5): −19.5%

CC(C)=CCOc1cccc(C(=O)O)c1 [Compound 8, 3-(3-Methyl-but-2-enyloxy)-benzoic acid]
Glucose (Absolute change from Control) ([1]; Table 1, aqueous solution): −31.6%

C=CCOc1ccc(OC)cc1C(=O)O [Compound 10, 2-Allyloxy-5-methoxy-benzoic acid]
Glucose (Absolute change from Control) ([1]; Table 1, aqueous solution): −27.2%

C=CCOc1ccc(C(=O)O)cc1 [Compound 2, 4-Allyloxy-benzoic acid]
Glucose (Absolute change from Control) ([1]; Table 1, aqueous solution): −42.4%

C=CCOc1cccc(C(=O)O)c1 [Compound 6, 3-Allyloxy-benzoic acid]
Glucose (Absolute change from Control) ([1]; Table 1, aqueous solution): −42.8% | Glucose (Absolute change from Control) [2, 3]: −10.7% | Glucose (Absolute change from Control) [2, 4]: −18.2%

CCCCOc1cccc(C(=O)O)c1 [Compound 27, 3-Butoxy-benzoic acid]
Glucose (Absolute change from Control) ([1]; Table 3): −23.9%

C=C(C)COCc1ccc(C(=O)O)cc1 [Compound 35, 4-(2-Methyl-allyloxymethyl)-benzoic acid]
Glucose (Absolute change from Control) ([1]; Table 5): −16.0%

C=CCCOCc1cccc(C(=O)O)c1 [Compound 36, 3-But-3-enyloxymethyl-benzoic acid]
Glucose (Absolute change from Control) ([1]; Table 5): −20.7%

C=CCOc1cc(C(=O)O)ccc1OC [Compound 22, 3-Allyloxy-4-methoxy-benzoic acid]
Glucose (Absolute change from Control) ([1]; Table 1, aqueous solution): −10.2%

CCOCc1cccc(C(=O)O)c1 [Compound 42, 3-Ethoxymethyl-benzoic acid]
Glucose (Absolute change from Control) ([1]; Table 5): −11.3%

C=CC(C)OCc1ccc(C(=O)O)cc1 (centres unmarked) [Compound 34, 4-(1-Methyl-allyloxymethyl)-benzoic acid]
Glucose (Absolute change from Control) ([1]; Table 5): −16.6%

CCCOc1ccccc1C(=O)O [Compound 26, 2-Propoxy-benzoic acid]
Glucose (Absolute change from Control) ([1]; Table 3): −14.2%

C=C(C)COc1ccccc1C(=O)O [Compound 15, 2-(2-Methyl-allyloxy)-benzoic acid]
Glucose (Absolute change from Control) ([1]; Table 1, aqueous solution): −37.4%

CC(C)COc1cccc(C(=O)O)c1 [Compound 31, 3-Isobutoxy-benzoic acid]
Glucose (Absolute change from Control) ([1]; Table 3): −9.5%

C=C(C)COc1cc(C(=O)O)ccc1OC [Compound 23, 4-Methoxy-3-(2-methyl-allyloxy)-benzoic acid]
Glucose (Absolute change from Control) ([1]; Table 1, aqueous solution): −8.4%

CCOCc1ccc(C(=O)O)cc1 [Compound 39, 4-Ethoxymethyl-benzoic acid]
Glucose (Absolute change from Control) ([1]; Table 5): −1.9%

C=CCCOc1ccccc1C(=O)O [Compound 3, 2-But-3-enyloxy-benzoic acid]
Glucose (Absolute change from Control) ([1]; Table 1, aqueous solution): −25.5%

C=C(C)COc1cccc(C(=O)O)c1 [Compound 21, 3-(2-Methyl-allyloxy)-benzoic acid]
Glucose (Absolute change from Control) ([1]; Table 1, aqueous solution): −27.4%

C=CCOc1ccc(Br)cc1C(=O)O [Compound 18, 2-Allyloxy-5-bromo-benzoic acid]
Glucose (Absolute change from Control) ([1]; Table 1, aqueous solution): −5.0%

C=CCOc1ccccc1C(=O)O [Compound 1, 2-Allyloxy-benzoic acid]
Glucose (Absolute change from Control) ([1]; Table 1, aqueous solution): −35.1% | Glucose (Absolute change from Control) [2, 3]: −12.5% | Glucose (Absolute change from Control) ([2]; Table 2, Insulin Dose 0.25 mg/kg, Carrier Dose 100 mg/kg): −17.9% | Glucose (Absolute change from Control) [2, 4]: 3.0%

CCCOCc1ccc(C(=O)O)cc1 [Compound 41, 4-Propoxymethyl-benzoic acid]
Glucose (Absolute change from Control) ([1]; Table 5): −19.2%

CCCOc1cccc(C(=O)O)c1 [Compound 24, 3-Propoxy-benzoic acid]
Glucose (Absolute change from Control) ([1]; Table 3): −15.2%

C=CCOc1cc(OC)ccc1C(=O)O [Compound 11, 2-Allyloxy-4-methoxy-benzoic acid]
Glucose (Absolute change from Control) ([1]; Table 1, aqueous solution): −24.0%

CCCCOc1ccc(C(=O)O)cc1 [Compound 28, 4-Butoxy-benzoic acid]
Glucose (Absolute change from Control) ([1]; Table 3): −22.3%

CC(C)=CCOc1ccccc1C(=O)O [Compound 7, 2-(3-Methyl-but-2-enyloxy)-benzoic acid]
Glucose (Absolute change from Control) ([1]; Table 1, aqueous solution): −38.8%

C=CCOc1c(OC)cccc1C(=O)O [Compound 12, 2-Allyloxy-3-methoxy-benzoic acid]
Glucose (Absolute change from Control) ([1]; Table 1, aqueous solution): −13.5%

CCCOc1ccc(C(=O)O)cc1 [Compound 25, 4-Propoxy-benzoic acid]
Glucose (Absolute change from Control) ([1]; Table 3): −25.5%

CCCCOc1ccccc1C(=O)O [Compound 29, 2-Butoxy-benzoic acid]
Glucose (Absolute change from Control) ([1]; Table 3): −34.9%

C=C(C)COc1ccc(C(=O)O)cc1 [Compound 20, 4-(2-Methyl-allyloxy)-benzoic acid]
Glucose (Absolute change from Control) ([1]; Table 1, aqueous solution): −51.1%

CC(C)=CCOc1ccc(C(=O)O)cc1 [Compound 9, 4-(3-Methyl-but-2-enyloxy)-benzoic acid]
Glucose (Absolute change from Control) ([1]; Table 1, aqueous solution): −27.8%

CC(C)OCc1ccc(C(=O)O)cc1 [Compound 40, 4-Isopropoxymethyl-benzoic acid]
Glucose (Absolute change from Control) ([1]; Table 5): −31.9%

C=CCOc1cccc(C)c1C(=O)O [Compound 14, 2-Allyloxy-6-methyl-benzoic acid]
Glucose (Absolute change from Control) ([1]; Table 1, aqueous solution): −14.4%

C=CCOc1ccc(C(C)=O)cc1C(=O)O [Compound 17, 5-Acetyl-2-allyloxy-benzoic acid]
Glucose (Absolute change from Control) ([1]; Table 1, aqueous solution): 0.6%

C=CCOc1cc(OCCO)ccc1C(=O)O [Compound 16, 2-Allyloxy-4-(2-hydroxy-ethoxy)-benzoic acid]
Glucose (Absolute change from Control) ([1]; Table 1, aqueous solution): −4.6%

CCCOCc1cccc(C(=O)O)c1 [Compound 44, 3-Propoxymethyl-benzoic acid]
Glucose (Absolute change from Control) ([1]; Table 5): −20.8%

C=CCOc1ccc(C)cc1C(=O)O [Compound 13, 2-Allyloxy-5-methyl-benzoic acid]
Glucose (Absolute change from Control) ([1]; Table 1, aqueous solution): −30.7%

C=C(C)COCc1cccc(C(=O)O)c1 [Compound 37, 3-(2-Methyl-allyloxymethyl)-benzoic acid]
Glucose (Absolute change from Control) ([1]; Table 5): −8.4%

C=CCCOc1cccc(C(=O)O)c1 [Compound 5, 3-But-3-enyloxy-benzoic acid]
Glucose (Absolute change from Control) ([1]; Table 1, aqueous solution): −40.8% | Glucose (Absolute change from Control) [2, 3]: −6.3% | Glucose (Absolute change from Control) [2, 4]: −5.4%
